Results taken from patent publication US5169844A, “4-substituted piperidinecarboxylic acid esters: inhibition of cholesterol absorption” (priority 1991, dated 1992).
Where two headings read alike, the source gives them in different places.

What was measured:
[1] = molecular target: T1, cholesterol esterase (EC 3.1.1.13) from bovine pancreas (CEH) (Bos taurus, UniProt P30122); assay: CEH inhibition (cholesteryl ester formation from cholesterol and oleic acid by buffered cholesterol esterase); format: biochemical
T1 construct: purchased Sigma Company, St. Louis, Mo., U.S.A. C-1892; host or cells: bovine pancreas
T1 sequence (P30122 19-597): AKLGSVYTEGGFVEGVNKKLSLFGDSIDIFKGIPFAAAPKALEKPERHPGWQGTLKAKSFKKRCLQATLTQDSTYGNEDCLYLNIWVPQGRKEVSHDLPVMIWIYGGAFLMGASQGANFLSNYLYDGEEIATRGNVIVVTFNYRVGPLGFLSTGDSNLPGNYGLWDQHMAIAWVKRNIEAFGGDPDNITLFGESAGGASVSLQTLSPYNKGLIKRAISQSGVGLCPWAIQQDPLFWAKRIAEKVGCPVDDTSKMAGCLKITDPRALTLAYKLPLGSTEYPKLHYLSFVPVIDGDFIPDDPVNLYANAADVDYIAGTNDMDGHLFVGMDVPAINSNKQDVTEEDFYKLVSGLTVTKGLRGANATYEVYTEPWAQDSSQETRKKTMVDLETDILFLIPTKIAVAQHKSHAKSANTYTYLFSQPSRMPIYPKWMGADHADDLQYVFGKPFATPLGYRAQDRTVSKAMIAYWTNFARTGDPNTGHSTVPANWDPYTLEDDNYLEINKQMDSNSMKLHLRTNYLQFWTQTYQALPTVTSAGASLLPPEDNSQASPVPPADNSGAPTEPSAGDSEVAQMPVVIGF
Method: 2. The ability of the compounds of this invention to inhibit the formation of cholesteryl esters and thereby interfere with and prevent assimilation of cholesterol into the lymphatic system and ultimately the blood stream was established by incubating the compounds at 37° C. with a mixture of cholesterol and oleic acid in the presence of buffered cholesterol esterase [(EC 3.1.1.13) Sigma Company, St. Louis, Mo., U.S.A., No. C-1892, from bovine pancreas] and measuring the amount of ester formed, according to the procedure of Field, J. of Lipid Research, 25 389 (1984).

[2] = test system: Absorption of 14C-cholesterol in normal rat; assay: In vivo cholesterol absorption, oral [4-14C] cholesterol, normal rats; settings: read-out: Effect on Absorption of 14C-Chol., % Decrease
Method: The in vivo cholesterol absorption studies were conducted in normal rats by oral administration of the compound being tested in propylene glycol and olive oil followed by oral administration of [4-^14 C] cholesterol in propylene glycol and olive oil, otherwise following the procedure of Cayen et al., J. Lipid Res. 20 162 (1979). The serum radioactivity was measured at six hours after dosing. The results of this study are reported in the following table, where available, as percent decrease compared to control and in terms of the effective dose (ED50) inhibiting fifty-percent of the absorption of the control animals.

[3] = test system: acyl-coenzyme A: cholesterol acyltransferase (ACAT); assay: ACAT inhibition (intracellular cholesterol esterification, procedure of Ross et al.); format: cell-based; settings: for IC50: read-out: ACAT IC50
Excerpt: 1. The ability of the compounds of this invention to inhibit acyl-coenzyme A: cholesterol acyltransferase was established by initially showing that they inhibited intracellular cholesterol esterification by subjecting them to the standard experimental test procedure of Ross et al., J. Biol. Chem. 259, 815 (1984).

[4] = 37° C., bovine pancreas enzyme, read-out: CEH IC50
[5] = normal rat, oral, 6 hr, serum radioactivity vs control
[6] = normal rat, oral, 6 hr, 10 mg/kg, serum radioactivity vs control

Row | SMILES | IC50 [1, 4] | ACAT % inhibition at 25 μM [3] | IC50 [3] | inhibition in vivo at 10 mg/kg [2, 6] | other results
1 | CCCCCCCCNC(=O)OC1CCN(C(=O)Oc2ccc(Oc3ccccc3)cc2)CC1 [Example 4, 4-[[(Octylamino)carbonyl]oxy]-1-piperidinecarboxylic acid 4-phenoxyphenyl ester] | > 100000 nM | 94% | 820 nM |  | inhibition in vivo at 100 mg/kg ([2]; normal rat, oral, 6 hr, 100 mg/kg, serum radioactivity vs control): 92%
2 | CCCCCCNC(=O)OC1CCN(C(=O)Oc2ccc(Oc3ccccc3)cc2)CC1 [Example 3, 4-[[(Hexylamino)carbonyl]oxy]-1-piperidinecarboxylic acid 4-phenoxyphenyl ester] |  | 94% | 640 nM |  | IC50 [1]: 9800 nM; inhibition in vivo at 10 mg/kg ([2]; Rattus norvegicus, po, 6 h): 85%
3 | O=C(NCC1CCCCC1)OC1CCN(C(=O)Oc2ccc(Oc3ccccc3)cc2)CC1 [Example 17, 4-[[[(Cyclohexylmethyl)amino]carbonyl]oxy]-1-piperidinecarboxylic acid 4-phenoxyphenyl ester] | 19000 nM | 97% | 490 nM |  | inhibition in vivo at 3 mg/kg ([2]; normal rat, oral, 6 hr, 3 mg/kg, serum radioactivity vs control): 68%
4 | CCCCCCCCCCCCCCCCCCNC(=O)OC1CCN(C(=O)Oc2ccc(Oc3ccccc3)cc2)CC1 [Example 7, 4-[[(Octadecylamino)carbonyl]oxy]-1-piperidinecarboxylic acid 4-phenoxyphenyl ester] | > 100000 nM |  |  |  | inhibition in vivo at 25 mg/kg [2, 5]: 28%
5 | CCCCNC(=O)OC1CCN(C(=O)Oc2ccc(Oc3ccccc3)cc2)CC1 [Example 2, 4-[[(Butylamino)carbonyl]oxy]-1-piperidinecarboxylic acid 4-phenoxyphenyl ester] |  | 96% | 2000 nM |  | IC50 [1]: 2300 nM
6 | O=C(Oc1ccc(Oc2ccccc2)cc1)N1CCC(OC(=O)N2CCC(c3ccccc3)CC2)CC1 [Example 16, 4-Phenyl-1-piperidinecarboxylic acid 1-[(4-phenoxyphenoxy)carbonyl]-4-piperidinyl ester] | 12000 nM | 91% | 510 nM | 48% | 
7 | O=C(NCCCCc1ccccc1)OC1CCN(C(=O)Oc2ccc(Oc3ccccc3)cc2)CC1 [Example 13, 4-[[[(4-Phenylbutyl)amino]carbonyl]oxy]-1-piperidinecarboxylic acid 4-phenoxyphenyl ester] | 5000 nM | 96% | 230 nM | 41% | 
8 | CC1CCN(C(=O)OC2CCN(C(=O)Oc3ccc(Oc4ccccc4)cc3)CC2)CC1 [Example 9] | 1100 nM |  |  |  | 
9 | O=C(NC1CCCCC1)OC1CCN(C(=O)Oc2ccc(Oc3ccccc3)cc2)CC1 [Example 5, 4-[[(Cyclohexylamino)carbonyl]oxy]-1-piperidinecarboxylic acid 4-phenoxyphenyl ester] | 9500 nM | 92% | 1680 nM | 89% | 
10 | CCCCCCCCCCCCNC(=O)OC1CCN(C(=O)Oc2ccc(Oc3ccccc3)cc2)CC1 [Example 6, 4-[[(Dodecylamino)carbonyl]oxy]-1-piperidinecarboxylic acid 4-phenoxyphenylester] | 16000 nM | 88% | 510 nM | 57% | 
11 | CCCCCCCC/C=C\CCCCCCCCNC(=O)OC1CCN(C(=O)Oc2ccc(Oc3ccccc3)cc2)CC1 [Example 14] | 43000 nM |  |  |  | inhibition in vivo at 25 mg/kg [2, 5]: 21%
12 | O=C(Oc1ccc(Oc2ccccc2)cc1)N1CCC(OC(=O)N2CCSCC2)CC1 [Example 15, 4-Thiomorpholinecarboxylic acid 1-[(4-phenxoyphenoxy)carbonyl]-4-piperidinyl ester] | 79000 nM |  |  |  | 
13 | CCN(CC)C(=O)OC1CCN(C(=O)Oc2ccc(Oc3ccccc3)cc2)CC1 [Example 12, 4-[[(Diethylamino)carbonyl]oxy]-1-piperidinecarboxylic acid 4-phenoxyphenylester] |  | 93% | 1370 nM |  | IC50 [1]: 11400 nM
14 | CNC(=O)OC1CCN(C(=O)Oc2ccc(Oc3ccccc3)cc2)CC1 [Example 11, 4-[[(Methylamino)carbonyl]oxy]-1-piperidinecarboxylic acid 4-phenoxyphenyl ester] |  |  |  |  | IC50 [1]: 2100 nM
15 | CCCCCCNC(=O)OC1CCN(C(=O)Oc2ccc(Oc3ccc(C)cc3)cc2)CC1 [Example 18, 4-[[(Hexylamino)carbonyl]oxy]-1-piperidinecarboxylic acid 4-(4-methylphenoxy)phenyl ester] | 2000 nM |  |  | 25% | 
16 | CC(C)CCCC(C)NC(=O)OC1CCN(C(=O)Oc2ccc(Oc3ccccc3)cc2)CC1 (stereo not shown) [Example 8, 4-[[[(1,5-Dimethylhexyl)amino]carbonyl]oxy]-1-piperidinecarboxylic acid 4-phenoxyphenyl ester] | 13000 nM |  |  |  | 
17 | CCCCCCNC(=O)OC1CCN(C(=O)Oc2ccc(Oc3ccc(OC)cc3)cc2)CC1 [Example 19, 4-[[(Hexylamino)carbonyl]oxy]-1-piperidinecarboxylic acid 4-(4-methoxyphenoxy)phenyl ester] | 2800 nM |  |  | 29% | 
18 | CCCCCCCN(Cc1ccc(CC(C)(C)C)cc1)C(=O)OC1CCN(C(=O)Oc2ccc(Oc3ccccc3)cc2)CC1 [Example 10, 4-[[[[[4-(2,2-Dimethylpropyl)phenyl]methyl]heptylamino]carbonyl]oxy]-1-piperidinecarboxylic acid 4-phenoxyphenyl ester] | > 100000 nM | 84% | 3300 nM |  | 
